# System: Eimeria tenella
# Assay: Anticoccidial test in chickens orally inoculated with sporulated oocysts of Eimeria tenella (anticoccidial index, ACI)
# Assay type: in vivo
# Details: for Lesion value: cecum, 7th day after infection; for Oocyst value: converted according to Table 2; for Clinical symptoms (bloody stool): after infection
# Excerpt: Male chicks from layer aged 1 day were selected and raised to 12-day-old. Each was weighed, while excluding thin or overweight individuals, healthy chickens with individual weight differences of less than 10 g were selected, and randomly divided into thirteen groups with each group including thirty chickens. Among them, ten groups were used as drug groups, one group as a model group, one group as a diclazuril group, and one group as a blank control group. Each chicken aged 12 days of the drug groups was subject to drug administration through mixing with feed, while that of the diclazuril group was administrated though drinking water. Each chicken aged 14 days in the drug groups, the diclazuril group and the model group was orally inoculated with 1.0×10^4 sporulated oocysts of Eimeria tenella. Each experimental chicken in all groups was free to feed and drink water until the test was over on the seventh day.
# The anticoccidial index (ACI) criteria were calculated by
# the calculation formula of Merck Corporation (USA), that is:
# ACI=(relative weight gain rate+survival rate)×100−(lesion value+oocyst value).
# Among them, the relative weight gain rate was calculated by
# weighing each chicken at the beginning and end of the test, respectively, to calculate the average and relative weight gain rates. Relative weight gain rate=(test group weight gain rate/blank control group weight gain rate)×100%.
# The survival rate was calculated by
# recording the number of dead chickens in each group, performing an autopsy to determine the cause of death, and calculating the survival rate. Survival rate=(number of chickens alive at the end of the test/number of chickens in the test group)×100%
# The lesion value was calculated by
# slaughtering each chicken on the 7th day after infection to take the cecum (as shown in FIG. 5-6), and scoring the intestinal lesion of each chicken according to the lesion scoring method designed by […] and Reid (1970), and converting the lesion score into the lesion value.
# Lesion scoring: (in case of lesion inconsistence between both sides of cecum, the more severe shall prevail):
# 0 point: no macroscopic lesions;
# 1 point: there are a few of petechiae scattered in the cecal wall, the cecal wall is not thickened, and the contents therein are normal;
# 2 points: the lesion number is more, the cecum contents are obviously bloody, the cecal wall is slightly thickened, and the contents therein are normal;
# 3 points: there is a lot of blood or there is a cecum core (blood clot or off-white cheese-like banana-shaped blocks) in the cecum, the cecal wall is obviously thickened, and the feces contents in the cecum are poor;
# 4 points: the cecum swells due to being full of a large amount of blood or cecum core with or without fecal residue, and it is also scored 4 points when the chicken dies for coccidiosis.
# Lesion value (0-40)=average lesion score (0-4) for each test group×10
# The oocyst value and the relative oocyst production (ROP) were calculated by collecting the chicken feces of each group, counting the number of oocysts in the feces according to McMaster counting, calculating the number of oocysts per gram of feces of each group, and obtaining the oocyst value by conversion according to Table 2.
# Relative oocyst production (ROP)=(average oocyst production in the test group/average oocyst production in the model group)×100%. ROP≥15%, resistant to drugs; ROP<15%, no drug resistance.
# The criteria for determining the drug efficacy were: ACI>180, high efficacy against coccidiosis; 160<ACI<180, medium efficacy against coccidiosis; 120<ACI<160, low efficacy against coccidiosis; ACI<120, inefficacy against coccidiosis.
# Male chicks from layer aged 1 day were selected and raised to 12-day-old. Each was weighed, while excluding thin or overweight individuals, healthy chickens with individual weight differences of less than 10 g were selected, and randomly divided into 6 groups with each group including thirty chickens. […]
# [1] = Example 2, Drug groups 1, 2 5 kg/ton in feed, Drug group 3 1:400 drinking water, diclazuril 0.2 ml/L
# [2] = Example 3, Drug groups 5 kg/ton in feed, diclazuril 0.2 ml/L drinking water
compound,measurement,setting,value
N#CC(c1ccc(Cl)cc1)c1c(Cl)cc(-n2ncc(=O)[nH]c2=O)cc1Cl (stereo not drawn) [Diclazuril],Effect against avian coccidiosis (conclusion),Example 1,high therapeutic effect
same,"Clinical symptoms (bloody stool, food intake)","Example 1, 4th to 6th day after infection",no bloody stool
same,Bloody stool (feces observation),"Example 1, 5th day after Eimeria challenge, partially mixed with blood / a large amount of feces mixed with blood / bloodless",bloodless
same,ACI value,"Example 1, ACI=(relative weight gain rate+survival rate)×100−(lesion value+oocyst value), herbs 5 kg/ton in feed, diclazuril 0.2 ml/L drinking water",201.2
same,Relative oocyst production (ROP),"Example 1, average oocyst production relative to model group, herbs 5 kg/ton in feed, diclazuril 0.2 ml/L drinking water",0.0%
same,Lesion value,"Example 1, lesion value (0-40) = average lesion score ×10, herbs 5 kg/ton in feed, diclazuril 0.2 ml/L drinking water",0.0
same,Relative weight gain rate,"Example 1, chickens, 1.0×10^4 oocysts at 14 days of age, herbs 5 kg/ton mixed with feed, diclazuril 0.2 ml/L drinking water, 9 days, relative to blank control",101.2%
same,Survival rate,"Example 1, chickens, 1.0×10^4 oocysts, herbs 5 kg/ton in feed, diclazuril 0.2 ml/L drinking water, 9 days",100%
same,Criteria (drug efficacy by ACI),"Example 1, herbs 5 kg/ton in feed, diclazuril 0.2 ml/L drinking water","High (ACI>180, high efficacy against coccidiosis)"
same,Oocyst value,"Example 1, oocysts per gram of feces relative to model group, herbs 5 kg/ton in feed, diclazuril 0.2 ml/L drinking water",0
same,Effect against avian coccidiosis (conclusion),Example 2,high therapeutic effect
same,ACI value,[1],198.9
same,Criteria (drug efficacy by ACI),[1],"High (ACI>180, high efficacy against coccidiosis)"
same,Survival rate,"Example 2, Drug groups 1, 2 5 kg/ton in feed, Drug group 3 1:400 drinking water, diclazuril 0.2 ml/L drinking water",100%
same,Clinical symptoms (bloody stool),Example 2,no bloody stool
same,Lesion value,[1],0
same,Relative weight gain rate,"Example 2, chickens, 1.0×10^4 oocysts, Drug groups 1, 2 5 kg/ton in feed, Drug group 3 1:400 drinking water, diclazuril 0.2 ml/L drinking water, 9 days",98.9%
same,Oocyst value,[1],0
same,Relative oocyst production (ROP),"Example 2, relative to model group, Drug groups 1, 2 5 kg/ton in feed, Drug group 3 1:400 drinking water, diclazuril 0.2 ml/L",0%
same,ACI value,[2],198.4
same,Criteria (drug efficacy by ACI),[2],"High (ACI>180, high efficacy against coccidiosis)"
same,Survival rate,[2],100%
same,Clinical symptoms (bloody stool),Example 3,no bloody stool
same,Lesion value,[2],0
same,Relative weight gain rate,"Example 3, chickens, 1.0×10^4 oocysts, Drug groups 1-3 5 kg/ton in feed, diclazuril 0.2 ml/L drinking water, 9 days",98.4%
same,Oocyst value,[2],0
same,Relative oocyst production (ROP),"Example 3, relative to model group, Drug groups 5 kg/ton in feed, diclazuril 0.2 ml/L drinking water",0%
